In US9045731B2, “Compositions and methods for improving the functional efficacy of stem cell-derived cardiomyocytes” (The Regents of the University of California, priority 2007, dated 2015):

Legend:
[1] = test system: H1-CMs; test: Cytosolic Ca2+ transients (Fura-2/AM) in adenovirus-transduced H1-CMs; format: cell-based, human; settings: for Electrically evoked Ca2+ transient amplitude after ryanodine / Upstroke velocity of Ca2+ transients after ryanodine: 10 μM ryanodine, 30 minutes
Description: Human cardiac calsequestrin 2 (sc119365, Origene technologies, MD) was cloned and ligated into adenovirus shuttle vectors pAdCMV-IRES-GFP using primers creating Bmt and Spe I sites (pAdCMV-CSQ-IRES-GFP). IRES, internal ribosomal entry site, allows the simultaneous translation of CSQ and the fluorescence marker (GFP) with a single transcript. The truncated CSQ mutant was constructed in pAdCMV-IRES-GFP by deleting 817 bp (53 bp-869 bp) using the two EcoN I sites inside CSQ's coding sequence (Ad-CSQΔ). The resulting product after Hind III cutting was self-ligated to produce another control of pAdCMV-GFP (Ad-GFP). Adenoviruses were generated by Cre-lox recombination of purified ψ5 viral DNA and shuttle vector DNA using Cre4 cells as described previously (56).
For isolating H1-CMs, beating outgrowths were microsurgically dissected from H1- derived EBs (7+14 to 7+21 days) by a glass knife, followed by incubation in collagenase II (1 mg/mL) at 37° C. for 30 min. The isolated cells were incubated with KB solution containing (mM): 85 KCl, 30 K2HPO4, 5 MgSO4, 1 EGTA, 2 Na2-ATP, 5 pyruvic acid, 5 creatine, 20 taurine, 20 d-glucose, at room temperature for 30 min. After the cells were plated on gelatin-coated glass coverslips for 1 hr at 37° C., regular culture media was added. After 48 hours, plated H1-CMs were infected with adenoviruses for 3 hours. Recordings were performed within 24-48 hrs after infection.
A spectrofluorometric method with Fura-2/AM as the Ca^2+ indicator was used for measuring [Ca^2+]i. H1-CMs were incubated with 10 μM Fura-2/AM and 0.2% pluronic F-127 for 30 min at 37° C. Fluorescent signals obtained upon excitation at 340 nm (F340) and 380 nm (F380) were recorded from cells perfused with Tyrode solution containing (mM): 140 NaCl, 5.0 KCl, 1.0 CaCl2, 1.0 MaCl2, 10.0 glucose and 10 HEPES (pH 7.4) unless otherwise indicated. Data were analyzed using the Ionwizard software (Version 5, IonOptix) to generate the Ca^2+ transient parameters reported in this study. The F340/F380 ratio was used to represent cytosolic [Ca^2+]i. To induce cytoplasmic Ca^2+ transients, CMs were stimulated by electrically pulsing from 0.1 to 0.5 Hz or by caffeine application as indicated.
For electrical stimulations, Ca^2+ transients were recorded and analyzed after a series of depolarizations that enabled each transient to fully decay so as to establish a steady-state SR content.

[2] = test system: H1-CMs; test: Cytosolic Ca2+ transients (Fura-2/AM spectrofluorometry) in H1-CMs; format: cell-based, human
Procedure: H1 cells were grown on irradiated mEFs from 13.5-day embryos of CF-1 mice and propagated as previously described (3). The culture medium consisted of 80% Dulbecco's modified Eagle's medium, 20% knockout serum replacement, 4 ng/ml basic fibroblast growth factor, 1 mmol/L glutamine, 0.1 mmol/L β-mercaptoethanol, and 1% nonessential amino acid solution (all from Gibco-BRL, Gaithersburg, Md.). To induce the formation of embryoid bodies (EBs), hESCs were detached using 1 mg/mL type IV collagenase (Gibco-BRL) and transferred to Petri dishes containing 80% Dulbecco's modified Eagle's medium, 20% fetal bovine serum defined (HyClone, Logan, Utah), 1 mmol/L glutamine, and 1% nonessential amino acid stock in the absence of β-FGF. The aggregates were cultured in suspension for 7 days, followed by plating on gelatin-coated (0.1%; Sigma-Aldrich, St. Louis) 6-well plates to form hESC-CMs.
(§1) For isolating hESC-CMs, beating outgrowths were microsurgically dissected from H1- (7+11 to 17 or 18-24 days) and HES2- (18-24 days) derived EBs by a glass knife, (4) followed by incubation in collagenase II (1 mg/mL) at 37° C. for 30 min. The isolated cells were incubated with KB solution containing (mM): 85 KCl, 30 K2HPO4, 5 MgSO4, 1 EGTA, 2 Na2-ATP, 5 pyruvic acid, 5 creatine, 20 taurine, 20 d-glucose, at room temperature for 30 min. After the cells were plated on laminin-coated glass coverslips for 1 hr at 37° C., regular culture media was added. […] Calcium recordings from cell clusters containing 10-15 cells were performed within 48 hrs after plating.
(§2) A spectrofluorometric method with Fura-2/AM as the Ca^2+ indicator was used for measuring [Ca^2+]i. FLV- or hESC-CMs were incubated with 5 μM Fura-2/AM and 0.2% pluronic F-127 for 30 min at 37° C. Fluorescent signals obtained upon excitation at 340 nm (F340) and 380 nm (F380) were recorded from cells perfused with Tyrode solution containing (mM): 140 NaCl, 5.0 KCl, 1.0 CaCl2, 1.0 MaCl2, 10.0 glucose and 10 HEPES (pH 7.4) unless otherwise indicated. Data were analyzed using the Ionwizard software (Version 5, IonOptix) to generate the Ca transient parameters reported in this study. The F340/F380 ratio was used to represent cytosolic [Ca^2+]i. To induce cytoplasmic Ca^2+ transients, CMs were stimulated by electrically pulsing from 0.1 to 0.5 Hz or by caffeine application as indicated. For electrical stimulations, Ca^2+ transients were recorded and analyzed after a series of depolarizations that enabled each transient to fully decay so as to establish a steady-state SR content.

[3] = test system: HES2-CMs; test: Cytosolic Ca2+ transients (Fura-2/AM spectrofluorometry) in HES2-CMs; format: cell-based, human
Procedure: Briefly, HES2 cells were grown on mitomycin C- (Sigma; St Louis, Mo., USA) inactivated mouse embryonic fibroblasts (mEFs). Culture medium consisted of DMEM (Invitrogen, Carlsbad, Calif.) containing 2 mM L-glutamine, insulin-transferrin-selenium, non-essential amino acids, 90 μM β-mercaptoethanol, and 20% FBS (Hyclone, Logan, Utah). HES2 cells were passaged manually (“cut-and-paste”), by cutting colony into pieces and removing them from the mEFs using dispase (8 mg/mL, Invitrogen, Carlsbad, Calif.). For cardiac differentiation, HES2 cells were removed from the mEFs, resuspended and broken into pieces, followed by co-culturing with the immortalized endoderm-like END2 cells at 100% confluence (6).
as §1, §2

[4] = test system: hESC-CMs; test: Cytosolic Ca2+ transients (Fura-2/AM), HES2- and H1-CMs taken together; format: cell-based, human; settings: for Effect on Vmax, upstroke of electrically evoked Ca2+ transients: 10 μM ryanodine, 30 min
Procedure: as §1, §2

[5] = test system: FLV-CMs; test: Cytosolic Ca2+ transients (Fura-2/AM spectrofluorometry) in human fetal left ventricular CMs; format: cell-based; settings: caffeine 10 mM, brief exposure, no Ca2+ in extracellular bath
Description: Human FLV-CMs and adult-CMs were isolated and experimented according to protocols approved by the UC Davis IUPAC and IRB (Protocol #200614787-1 and # 200614594-1). Briefly, fetal human hearts (16-18 weeks, Advanced Bioscience Resources, INC. Alameda, Calif.) and adult human hearts (18+ years, National Disease Research Interchange, Philadelphia, Pa.) were perfused with enzymatic solutions using a customized Langendorff apparatus as previously described (19). […]
as §2, with “FLV- or hESC-CMs were incubated with 5 μM Fura-2/AM and 0.2% pluronic F-127 for 30 min at 37° C.” left out, “The F340/F380 ratio was used to represent cytosolic [Ca^2+]i. To induce cytoplasmic Ca^2+ transients, CMs were stimulated by electrically pulsing from 0.1 to 0.5 Hz or by caffeine application as indicated.” left out

C/C=C(/C)C(=O)O[C@H]1C(C)=C2[C@H]([C@@H]1OC(=O)CCCCCCC)[C@@](C)(OC(C)=O)C[C@H](OC(=O)CCC)[C@@]1(O)[C@H]2OC(=O)[C@@]1(C)O [thapsigargin]
Decay velocity of Ca2+ transients after thapsigargin ([1]; thapsigargin (0.5 μM), 15 min, H1-CMs transduced with Ad-CSQ): 61%
Decay velocity of Ca2+ transients after thapsigargin ([1]; thapsigargin (0.5 μM), 15 min, H1-CMs transduced with Ad-CSQΔ): 65%
Decay velocity of Ca2+ transients after thapsigargin ([1]; thapsigargin (0.5 μM), 15 min, H1-CMs transduced with Ad-GFP): 69%
Ca2+ transient amplitude after thapsigargin ([1]; thapsigargin (0.5 μM), 15 min, transduced H1-CMs (all three groups)): unchanged
Effect on Vmax, decay of electrically evoked Ca2+ transients ([2]; thapsigargin 0.5 μM, 15 min, H1-CMs): significantly slowed
Effect on electrically evoked Ca2+ transient amplitude ([2]; thapsigargin 0.5 μM, 15 min, caffeine-responsive H1-CMs): significantly reduced
Effect on Vmax, decay of electrically evoked Ca2+ transients ([3]; thapsigargin 0.5 μM, 15 min, HES2-CMs): significantly slowed
Effect on electrically evoked Ca2+ transient amplitude ([3]; thapsigargin 0.5 μM, 15 min, caffeine-responsive HES2-CMs): significantly reduced

Cn1c(=O)c2c(ncn2C)n(C)c1=O [caffeine]
Percentage of cells with caffeine-induced large Ca2+ transients ([4]; hESC-CMs (HES2- and H1-CMs pooled)): ~38%
Cytosolic Ca2+ response to caffeine ([1]; caffeine 10 mM, brief exposure, transduced H1-CMs): robust cytosolic Ca^2+ increase
Percentage of cells with caffeine-induced rise in cytosolic Ca2+ (caffeine-responsive cells) [5]: 65%
Percentage of cells with caffeine-induced Ca2+ transients (caffeine-responsive cells) ([2]; caffeine 10 mM, brief exposure, no Ca2+ in extracellular bath, H1-CMs): 35%
Percentage of cells with caffeine-induced Ca2+ transients (caffeine-responsive cells) ([3]; caffeine 10 mM, brief exposure, no Ca2+ in extracellular bath, HES2-CMs): 40%

ryanodine
Effect on Vmax, upstroke of electrically evoked Ca2+ transients ([4]; caffeine-insensitive cells): not
Effect on Vmax, upstroke of electrically evoked Ca2+ transients ([4]; caffeine-responsive cells): significantly slowed
Electrically evoked Ca2+ transient amplitude after ryanodine ([1]; H1-CMs transduced with Ad-CSQ): 78%
Upstroke velocity of Ca2+ transients after ryanodine ([1]; H1-CMs transduced with Ad-CSQ): 67%
Electrically evoked Ca2+ transient amplitude after ryanodine ([1]; H1-CMs transduced with Ad-CSQΔ): 84%
Upstroke velocity of Ca2+ transients after ryanodine ([1]; H1-CMs transduced with Ad-CSQΔ): 62%
Electrically evoked Ca2+ transient amplitude after ryanodine ([1]; H1-CMs transduced with Ad-GFP): 80%
Upstroke velocity of Ca2+ transients after ryanodine ([1]; H1-CMs transduced with Ad-GFP): 64%
Effect on electrically evoked Ca2+ transient amplitude ([2]; 10 μM ryanodine, 30 min, caffeine-insensitive H1-CMs): not affected
Reduction of electrically evoked Ca2+ transient amplitude ([2]; 10 μM ryanodine, 30 min, caffeine-responsive H1-CMs): 18±4.3%
Effect on electrically evoked Ca2+ transient amplitude ([3]; 10 μM ryanodine, 30 min, caffeine-insensitive HES2-CMs): not affected
Reduction of electrically evoked Ca2+ transient amplitude ([3]; 10 μM ryanodine, 30 min, caffeine-responsive HES2-CMs): 37±4.8%
